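Dose response: 5 concentrations. Exposure: 48 h. Format: 96-well plates. Endpoint: linear interpolation; highest concentration if not reached. GI50 marks 50% less growth.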 Active and inactive are the calls of the source. Rule as the data show it: active = GI50 up to about 1.1 µM and inactive = higher.
What was measured:
Test in all cases: inhibition of tumour cell growth, NCI panel, 48 h
M14 = test system: M14
Malme-3M = test system: Malme-3M
SN12C = test system: SN12C
UACC-62 = test system: UACC-62
HCT-15 = test system: HCT-15
KM12 = test system: KM12
MOLT-4 = test system: MOLT-4
K562 = test system: K562
NCI-H522 = test system: NCI-H522
MDA-MB-231 = test system: MDA-MB-231
HOP-92 = test system: HOP-92
NCI/ADR-RES = test system: NCI/ADR-RES
NCI-H23 = test system: NCI-H23
A549 = test system: A549
SR = test system: SR
LOX IMVI = test system: LOX IMVI
DU-145 = test system: DU-145
MCF7 = test system: MCF7
A498 = test system: A498

Row | Compound | GI50 (M14) | GI50 (Malme-3M) | GI50 (SN12C) | GI50 (UACC-62) | GI50 (HCT-15) | GI50 (KM12) | GI50 (MOLT-4) | GI50 (K562) | GI50 (NCI-H522) | GI50 (MDA-MB-231) | GI50 (HOP-92) | GI50 (NCI/ADR-RES) | GI50 (NCI-H23) | GI50 (A549) | GI50 (SR) | GI50 (LOX IMVI) | GI50 (DU-145) | GI50 (MCF7) | GI50 (A498)
1 | COC(=O)/C=C\COCC1C2CCC(=O)C21 (stereo unspecified) | 8.36 µM (inactive) | 4.67 µM (inactive) | > 25 µM (inactive) | 16.4 µM (inactive) | 9.57 µM | 17.9 µM (inactive) | 6.07 µM (inactive) | 8.28 µM (inactive) | 3.86 µM (inactive) | > 25 µM (inactive) | 5.77 µM (inactive) | 17.4 µM (inactive) | > 25 µM (inactive) | > 25 µM (inactive) | 8.3 µM (inactive) | 14.5 µM (inactive) | > 25 µM (inactive) | 10.3 µM (inactive) | 
2 | Cc1ccc(NC(=O)CCC(CC(=O)C(C)(C)C)=NNC(=O)C(=O)NN)cc1C | > 100 µM (inactive) | > 100 µM (inactive) | > 100 µM (inactive) | > 100 µM (inactive) | > 100 µM | > 100 µM (inactive) | > 100 µM (inactive) | > 100 µM (inactive) | > 100 µM (inactive) |  |  |  | > 100 µM (inactive) | > 100 µM (inactive) |  | > 100 µM (inactive) |  |  | 
3 | O=C(/C=C/c1ccc(Cl)c(Cl)c1)c1cccc2ccccc12 | 17.1 µM (inactive) | 18.4 µM (inactive) | 16.9 µM (inactive) | 12.9 µM (inactive) | 2.54 µM | 4.4 µM (inactive) |  | 3.17 µM (inactive) | 2.97 µM (inactive) |  | 16.8 µM (inactive) |  | 8.17 µM (inactive) | 15.7 µM (inactive) |  |  |  |  | 22.5 µM (inactive)
4 | CC(=O)OCC1=CC2CCC3C(C)(CCC[C@]3(C)COC(C)=O)C23CC[C@H]1C3 (stereo partly specified) | 36 µM (inactive) | 52.8 µM (inactive) | 45.2 µM (inactive) | 36.1 µM (inactive) | > 100 µM | 33.7 µM (inactive) | 20.1 µM (inactive) | 27.2 µM (inactive) | 18.8 µM (inactive) |  | 27.8 µM (inactive) |  | 33.9 µM (inactive) | 64 µM (inactive) | 27.5 µM (inactive) | 25 µM (inactive) |  |  | > 100 µM (inactive)
5 | CCCCCCCCCCCCn1[nH]c(C)c(C(=S)SCCCCCCCC)c1=O | 56.1 µM (inactive) | > 100 µM (inactive) | 86.3 µM (inactive) | 21.1 µM (inactive) | 21 µM | 70.1 µM (inactive) | 14 µM (inactive) | 40.3 µM (inactive) | 31.9 µM (inactive) |  | > 100 µM (inactive) |  | 73.3 µM (inactive) | 69.5 µM (inactive) |  | 48.8 µM (inactive) |  |  | > 100 µM (inactive)
